Measured values as given in US8193234B2, “Compounds, compositions and methods of using same for modulating uric acid levels” (Ardea Biosciences, Inc., priority 2008, dated 2012).
Like-named read-outs stand apart in the source and are kept apart here. One block for each molecule: values may come before it.

Tests used:
[1] = molecular target: T1, hURAT1 Transporter (Homo sapiens, UniProt Q96S37); experiment: Uric Acid Uptake Assay (14C-uric acid uptake in HEK293/urat1 cells); format: cell-based; conditions: 40 μM C14 uric acid, 10 minutes at room temperature
T1 construct: Full-length human URAT1 gene (SLC22A12) was subcloned from plasmid pCMV6-XL5 (Origene)
T1 sequence (Q96S37 1-553): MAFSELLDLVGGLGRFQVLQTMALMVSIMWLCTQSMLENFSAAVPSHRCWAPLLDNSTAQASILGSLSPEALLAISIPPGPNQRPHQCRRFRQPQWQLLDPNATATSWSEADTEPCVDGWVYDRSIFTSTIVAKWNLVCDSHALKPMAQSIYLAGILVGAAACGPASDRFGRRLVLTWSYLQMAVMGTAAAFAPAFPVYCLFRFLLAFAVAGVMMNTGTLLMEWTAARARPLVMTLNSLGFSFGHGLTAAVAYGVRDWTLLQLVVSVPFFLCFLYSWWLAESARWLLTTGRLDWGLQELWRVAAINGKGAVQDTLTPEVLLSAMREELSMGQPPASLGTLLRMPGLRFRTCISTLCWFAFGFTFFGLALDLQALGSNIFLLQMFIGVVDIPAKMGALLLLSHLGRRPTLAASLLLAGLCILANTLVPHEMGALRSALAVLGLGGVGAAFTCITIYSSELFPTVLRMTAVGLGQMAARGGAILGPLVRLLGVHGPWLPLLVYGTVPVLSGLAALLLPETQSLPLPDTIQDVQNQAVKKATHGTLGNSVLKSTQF
Description: Creation of Stable Cell Lines Expressing hURAT1 Transporter: Full-length human URAT1 gene (SLC22A12) was subcloned from plasmid pCMV6-XL5 (Origene) into eukaryotic expression plasmid pCMV6/Neo (Origene) using Not I restriction sites. Gene sequencing confirmed the sequence of hURAT1 as outlined in Genbank (Accession #NM_144585.2). HEK293 human embryonic kidney cells (ATCC #CRL-1573) were propagated in EMEM tissue culture medium as described by ATCC in an atmosphere of 5% CO2 and 95% air. Transfections of HEK293 cells with the pCMV6/Neo/URAT1 construct were performed using L2000 transfection reagent (Invitrogen) as described by the manufacturer. After 24 h the transfected cells were split into 10 cm tissue culture plates and grown for 1 day after which the medium was replaced with fresh growth medium containing G418 (Gibco) at 0.5 mg/ml final concentration. Drug-resistant colonies were selected after approximately 8 days and then tested for ^14C-uric acid transport activity. The HEK293/urat1 cells are plated on Poly-D-Lysine Coated 96-well Plates at a density of 75,000 cells per well.
Cells were grown overnight (20-26 hours) at 37° C. in an incubator. Plates were allowed to come to room temperature and media was washed out with one wash of 250 μl of Wash Buffer (125 mM Na Gluconate, 10 mM Hepes ph 7.3). Compound or vehicle is added in assay buffer with C14 Uric Acid for a final concentration of 40 μM Uric Acid with a specific activity of 54 mCi/mmol. Assay Buffer is 125 mM Sodium Gluconate, 4.8 mM Potassium Gluconate, 1.2 mM Potassium phosphate, monobasic, 1.2 mM magnesium sulfate, 1.3 mM Ca Gluconate, 5.6 mM Glucose, 25 mM HEPES, pH 7.3. Plates were incubated at room temperature for 10 minutes then washed 3 times with 50 μl Wash Buffer and 3 times with 250 μl Wash Buffer. Microscint 20 Scintillation Fluid was added and plates were incubated overnight at 45° C. to equilibrate. Plates are then read on the TopCount Plate Reader and an EC50 value generated. (See Enomoto et al, Nature, 2002, 417, 447-451 and Anzai et al, J. Biol. Chem., 2004, 279, 45942-45950).
Compounds prepared as described herein, were examined according to the procedure described above and EC50 values generated. […] (N/A means data not available).

[2] = PO Dosing in Rats: plasma profile; format: in vivo, Male Sprague-Dawley Rats; conditions: for Cmax / Tmax / half-life / AUC(0-t): Sprague-Dawley, rat; for Cmax / Tmax / half-life / Clast: analyte = dosed compound itself in plasma; for half-life: read-out: t½ (converted); for AUC t = 0_6, share in brackets / AUC t = 12_24, share in brackets / AUC t = _12, share in brackets: share of AUC 0_24; for AUC(0-t): male, plasma, po, 3 mg/kg
Protocol: (§1) Compounds prepared as described in examples 1, 3, 7, 8, and 9 are administered PO to Male Sprague-Dawley Rats (250 grams; 3 animals per test group). The test compounds are dissolved in aqueous sodium hydroxide solution (0.2N), brought up to volume with phosphate buffered saline to a concentration of 0.6 mg/mL, and PO administered to the animals at a concentration of 3 mg/kg (5 mL/kg). Plasma samples are removed at 0.25, 0.5, 1, 3, 6, 12 and 24 hr after initial dose and analyzed for presence of compound and possible metabolite. Urine samples are also collected and analyzed for parent compound and/or metabolite.
(§2) Note that in some instances, 2-(5-Bromo-1-(4-cyanonaphthalen-1-yl)-1H-imidazol-2-ylthio)acetic acid (eg 1) is a possible in vivo metabolite of the compounds described in examples 2-9.

[3] = PO Dosing in Rats: urinary excretion profile; format: in vivo, Male Sprague-Dawley Rats; conditions: analyte = dosed compound itself in urine, PO 3 mg/kg, male rats
Protocol: as §1, §2

[4] = background statement, in certain instances; cited from earlier work
[5] = analyte = dosed compound itself
[6] = analyte = dosed compound itself, PO 3 mg/kg, male rats, read-out: AUC t = 0_6
[7] = analyte = dosed compound itself, PO 3 mg/kg, male rats, read-out: AUC t = 0_24
[8] = analyte = dosed compound itself, PO 3 mg/kg, male rats, read-out: AUC t = 12_24
[9] = analyte = dosed compound itself, PO 3 mg/kg, male rats, read-out: AUC t = _12
[10] = footnote *: plasma, not urinary, distribution, analyte = dosed compound, PO 3 mg/kg, male rats

EC50 [1]: 1 to 30 µM
Cmax ([2]; PO 3 mg/kg, male rats): 56.6 ng/mL
Tmax ([2]; PO 3 mg/kg, male rats): 0.833 h
half-life ([2]; PO 3 mg/kg, male rats): 3.49 h
Clast ([2]; PO 3 mg/kg, male rats): 0.518 ng/mL
AUC t = 0_6, share in brackets [2, 5]: (58%)
AUC t = 12_24, share in brackets [2, 5]: (10%)
AUC t = _12, share in brackets [2, 5]: (32%)
AUC(0-t) [2, 6]: 145 ng·h/mL
AUC(0-t) [2, 7]: 251 ng·h/mL
AUC(0-t) [2, 8]: 25.6 ng·h/mL
AUC(0-t) [2, 9]: 79.8 ng·h/mL
Total Urinary Excretion % of dose [3]: 7 % of dose
Urinary Distribution (%) 0-6 h [3]: 74%
Urinary Distribution (%) 6-12 h [3]: 20%
Urinary Distribution (%) 12-24 h [3]: 7%
Structure (SMILES): N#Cc1ccc(-n2c(Br)cnc2SCC(=O)NCC(=O)O)c2ccccc12 [Example 3, 2-(2-(5-Bromo-1-(4-cyanonaphthalen-1-yl)-1H-imidazol-2-ylthio)acetamido)acetic acid]

EC50 [1]: 0.001 to 1 µM
Structure (SMILES): CCOC(=O)[C@@H](NC(=O)CSc1ncc(Br)n1-c1ccc(C#N)c2ccccc12)C(C)C [Example 6, (2S)-Ethyl 2-(2-(5-bromo-1-(4-cyanonaphthalen-1-yl)-1H-imidazol-2-ylthio)acetamido)-3-methylbutanoate]

EC50 [1]: 1 to 30 µM
Cmax ([2]; PO 3 mg/kg, male rats): 25.8 ng/mL
Tmax ([2]; PO 3 mg/kg, male rats): 2.67 h
half-life ([2]; PO 3 mg/kg, male rats): 2.69 h
Clast ([2]; PO 3 mg/kg, male rats): 4.69 ng/mL
AUC t = 0_6, share in brackets [2, 5]: (49%)
AUC t = 12_24, share in brackets [2, 5]: (15%)
AUC t = _12, share in brackets [2, 5]: (36%)
AUC(0-t) [2, 6]: 91.5 ng·h/mL
AUC(0-t) [2, 7]: 187 ng·h/mL
AUC(0-t) [2, 8]: 28.2 ng·h/mL
AUC(0-t) [2, 9]: 67.7 ng·h/mL
Total Urinary Excretion % of dose [3]: 1 % of dose
Urinary Distribution (%) 0-6 h [3]: 66%
Urinary Distribution (%) 6-12 h [3]: 26%
Urinary Distribution (%) 12-24 h [3]: 9%
Structure (SMILES): CC(C)[C@H](NC(=O)CSc1ncc(Br)n1-c1ccc(C#N)c2ccccc12)C(=O)O [Example 9, (2S)-2-(2-(5-bromo-1-(4-cyanonaphthalen-1-yl)-1H-imidazol-2-ylthio)acetamido)-3-methylbutanoic acid]

EC50 [1]: 0.001 to 1 µM
Structure (SMILES): N#Cc1ccc(-n2c(Br)cnc2SC(F)(F)C(=O)O)c2ccccc12 [Example 10, 2-(5-Bromo-1-(4-cyanonaphthalen-1-yl)-1H-imidazol-2-ylthio)-2,2-difluoroacetic acid]

EC50 [1]: 0.001 to 1 µM
Structure (SMILES): CCOC(=O)[C@H](C)NC(=O)CSc1ncc(Br)n1-c1ccc(C#N)c2ccccc12 [Example 5, (2S)-Ethyl 2-(2-(5-bromo-1-(4-cyanonaphthalen-1-yl)-1H-imidazol-2-ylthio)acetamido)propanoate]

EC50 [1]: 0.001 to 1 µM
BA ([2]; analyte = dosed compound itself, PO 3 mg/kg, male rats): 30%
Plasma Distribution (%) 0-6 h [2, 10]: 85* %
Plasma Distribution (%) 6-12 h [2, 10]: 11* %
Plasma Distribution (%) 12-24 h [2, 10]: 4* %
Total Urinary Excretion % of dose [3]: 4.2 % of dose
Structure (SMILES): N#Cc1ccc(-n2c(Br)cnc2SCC(=O)O)c2ccccc12 [Example 1, 2-(5-Bromo-1-(4-cyanonaphthalen-1-yl)-1H-imidazol-2-ylthio)acetic acid]

Structure (SMILES): CCCN(CCC)S(=O)(=O)c1ccc(C(=O)O)cc1 [probenecid]
individuals treated who fail to achieve reduction of serum uric acid levels<6 mg/dL [4]: 25-50%
individuals who develop intolerance [4]: one-third

EC50 [1]: > 30 µM
Cmax ([2]; PO 3 mg/kg, male rats): 110 ng/mL
Tmax ([2]; PO 3 mg/kg, male rats): 1 h
half-life ([2]; PO 3 mg/kg, male rats): 2.99 h
Clast ([2]; PO 3 mg/kg, male rats): 0.371 ng/mL
AUC t = 0_6, share in brackets [2, 5]: (69%)
AUC t = 12_24, share in brackets [2, 5]: (13%)
AUC t = _12, share in brackets [2, 5]: (17%)
AUC(0-t) [2, 6]: 339 ng·h/mL
AUC(0-t) [2, 7]: 488 ng·h/mL
AUC(0-t) [2, 8]: 65.2 ng·h/mL
AUC(0-t) [2, 9]: 83.9 ng·h/mL
Total Urinary Excretion % of dose [3]: 8 % of dose
Urinary Distribution (%) 0-6 h [3]: 63%
Urinary Distribution (%) 6-12 h [3]: 32%
Urinary Distribution (%) 12-24 h [3]: 5%
Structure (SMILES): C[C@H](NC(=O)CSc1ncc(Br)n1-c1ccc(C#N)c2ccccc12)C(=O)O [Example 8, (2S)-2-(2-(5-bromo-1-(4-cyanonaphthalen-1-yl)-1H-imidazol-2-ylthio)acetamido)propanoic acid]

EC50 [1]: 1 to 30 µM
Structure (SMILES): Cc1cnc(SCC(=O)O)n1-c1ccc(N(C)C)c2c1CCCC2

EC50 [1]: 1 to 30 µM
Total Urinary Excretion % of dose [3]: 26 % of dose
Urinary Distribution (%) 0-6 h [3]: 63%
Urinary Distribution (%) 6-12 h [3]: 30%
Urinary Distribution (%) 12-24 h [3]: 7%
Structure (SMILES): N#Cc1ccc(-n2c(Br)cnc2SCC(=O)NCCC(=O)O)c2ccccc12 [Example 7, 3-(2-(5-bromo-1-(4-cyanonaphthalen-1-yl)-1H-imidazol-2-ylthio)acetamido)propanoic acid]

EC50 [1]: 0.001 to 1 µM
Structure (SMILES): CCOC(=O)CCNC(=O)CSc1ncc(Br)n1-c1ccc(C#N)c2ccccc12 [Example 4, Ethyl 3-(2-(5-bromo-1-(4-cyanonaphthalen-1-yl)-1H-imidazol-2-ylthio)acetamido)propanoate]

Structure (SMILES): Oc1ncnc2[nH]ncc12 [Allopurinol, allopurinol]
incidence of side effects, of all individuals treated with the drug [4]: 20%

EC50 [1]: 0.001 to 1 µM
Structure (SMILES): CCOC(=O)CNC(=O)CSc1ncc(Br)n1-c1ccc(C#N)c2ccccc12 [Example 2, Ethyl 2-(2-(5-bromo-1-(4-cyanonaphthalen-1-yl)-1H-imidazol-2-ylthio)acetamido)acetate]
